# Results published in patent publication US20160303147A1 (priority 2007, published 2016).
# Read-outs that look alike come from different tables or passages of the source.
# Tests used:
# [1] = Clinical pharmacokinetics in healthy volunteers, single dose of CMX001; type: in vivo; conditions: Human, analyte = label
# Protocol: (§1) An initial study was conducted to evaluate the safety and pharmacokinetics of
# (§2) CMX001 in healthy volunteers. The study consisted of a single dose arm (SD) and a multiple dose arm (MD). In the single dose arm 7 cohorts of 6 subjects were treated (4 subjects received active drug and 2 placebo). Enrollment was staggered as 2 subjects (one active, one placebo) followed by 4 subjects (Groups A and B). The estimated single doses for the two highest doses treated for a […] subject were 40 mg (0.6 mg/kg cohort 6) and 70 mg (1 mg/kg cohort 7). In the multiple dose arm, cohort 6MD received 0.1 mg/kg on Day 0, 6 and 12; Cohort 7MD received 0.2 mg/kg on Day 0, 6 and 12. Levels of cidofovir, CMX001 and CMX064 (major metabolite) were measured in blood and urine of subjects during the course of the study. Gastrointestinal (GI) monitoring of the subjects included (a) monitoring for clinical signs of GI adverse events, (b) monitoring for clinical symptoms using a visual Analog Scale, (c) monitoring for appetite loss/anorexia, nausea, vomiting, diarrhea, constipation and intestinal gas/bloating, (d) laboratory tests for fecal occult blood; serum electrolytes, urine specific gravity, BUN/creatinine ratio; serum albumin, and lipids, and (e) diagnostic studies (the Wireless capsule endoscopy (PillCam®, Given Imaging)).
# Table 3 illustrates the PK comparison of CMX 001 with CMX 021 and CMX 064 for mouse, rabbit and human.
# [2] = intravenous infusion, patients; cited from earlier work
# [3] = system: lethal Orthopoxivirus infections; type: in vivo; conditions: mice and rabbits
# [4] = Clinical safety study in healthy volunteers, single dose cohort 6; type: in vivo, human; conditions: cohort 6, 600 μg/kg single dose, still blinded
# Protocol: as §1, §2
# Plasma concentration curves of CMX001 following a single dose administration are shown in FIG. 1, and plasma concentration curves of cidofovir following a single dose of CMX001 are shown in FIG. 2.
compound,measurement,setting,value
Nc1ccn(C[C@@H](CO)OCP(=O)(O)OCCCOCCCC(=O)O)c(=O)n1 [CMX064],AUCO→,[1]; CMX001 dose 0.050 mg/kg,38.95 ng·h/mL
same,Cmax,[1]; CMX001 dose 0.050 mg/kg,4.63 ng/mL
same,AUCO→,[1]; CMX001 dose 0.100 mg/kg,34.02 ng·h/mL
same,Cmax,[1]; CMX001 dose 0.100 mg/kg,2.85 ng/mL
same,AUCO→,[1]; CMX001 dose 0.200 mg/kg,39.73 ng·h/mL
same,Cmax,[1]; CMX001 dose 0.200 mg/kg,4.55 ng/mL
same,AUCO→,[1]; CMX001 dose 0.400 mg/kg,202.99 ng·h/mL
same,Cmax,[1]; CMX001 dose 0.400 mg/kg,23.03 ng/mL
same,AUCO→,[1]; CMX001 dose 0.600 mg/kg,187.0 ng·h/mL
same,Cmax,[1]; CMX001 dose 0.600 mg/kg,24.86 ng/mL
Nc1ccn(C[C@@H](CO)OCP(=O)(O)O)c(=O)n1 [Cidofovir],nephrotoxicity,[2],dose-limited by its nephrotoxicity
CCCCCCCCCCCCCCCCOCCCOP(=O)(O)CO[C@H](CO)Cn1ccc(N)nc1=O [CMX001],effective dose,"[3]; daily for 5 days, low titer inoculums",1 to 2 mg/kg
same,effective dose,"[3]; late stage, single dose",20 to 30 mg/kg
same,protection against lethal Orthopoxivirus infections,[3],essentially completely protective
same,adverse events,[4],"No serious adverse events (SAEs), no significant adverse events (AEs) (i.e. ≧Grade 2), no AEs directly attributable to drug"
same,changes to clinical laboratory values,[4],"No drug associated clinically significant changes to clinical laboratory values, including those indicative of kidney dysfunction"
same,gastrointestinal capsule endoscopy findings,[4],No post-dose clinically significant gastrointestinal capsule endoscopy findings attributable to drug
